# Assay results published in publication PMC5324060, “Evolutionary, computational, and biochemical studies of the salicylaldehyde dehydrogenases in the naphthalene degradation pathway” (Scientific Reports, 2017).
# Positions count from the first letter of the chain named. In names and notes the source's numbering stands. Read-outs that look alike come from different tables or passages of the source.
# T1: SALDan E175A (Alteromonas naphthalenivorans, UniProt F5Z5S7, E175A)
# T1 sequence (F5Z5S7 1-483 E175A): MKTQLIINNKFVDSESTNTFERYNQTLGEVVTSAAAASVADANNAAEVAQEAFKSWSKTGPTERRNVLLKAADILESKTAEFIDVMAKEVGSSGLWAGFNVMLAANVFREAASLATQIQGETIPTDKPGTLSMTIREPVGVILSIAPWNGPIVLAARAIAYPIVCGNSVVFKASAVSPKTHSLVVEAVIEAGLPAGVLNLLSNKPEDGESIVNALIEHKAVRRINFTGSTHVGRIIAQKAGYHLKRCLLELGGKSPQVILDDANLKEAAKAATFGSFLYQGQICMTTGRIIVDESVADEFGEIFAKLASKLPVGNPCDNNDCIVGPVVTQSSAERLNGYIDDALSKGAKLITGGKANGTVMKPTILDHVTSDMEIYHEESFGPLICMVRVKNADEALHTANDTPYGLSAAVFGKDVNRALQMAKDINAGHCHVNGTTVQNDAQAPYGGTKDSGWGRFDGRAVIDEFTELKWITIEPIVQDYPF
# T2: SALDan N149A (Alteromonas naphthalenivorans, UniProt F5Z5S7, N149A)
# T2 sequence (F5Z5S7 1-483 N149A): T1 sequence (F5Z5S7 1-483 E175A) with N149A, A175E
# T3: SALDan V153A (Alteromonas naphthalenivorans, UniProt F5Z5S7, V153A)
# T3 sequence (F5Z5S7 1-483 V153A): T1 sequence (F5Z5S7 1-483 E175A) with V153A, A175E
# B1: SALDan E175A (Alteromonas naphthalenivorans; E175A) (protein)
# chain: T1 sequence (F5Z5S7 1-483 E175A)
# B2: SALDan N149A (Alteromonas naphthalenivorans; N149A) (protein)
# chain: T1 sequence (F5Z5S7 1-483 E175A) with N149A, A175E
# B3: SALDan V153A (Alteromonas naphthalenivorans; V153A) (protein)
# chain: T1 sequence (F5Z5S7 1-483 E175A) with V153A, A175E
# What was measured:
# SALDan = SALDan (Alteromonas naphthalenivorans, UniProt F5Z5S7); assay: Kinetics assay of wild-type recombinant SALDan (NADH appearance at 340 nm); format: biochemical; conditions: for App Vmax / App kcat / Km: aldehyde varied at NAD^+ 100 μM, enzyme 0.1 μM, for NAD^+: SAL fixed 50 μM; for Km: NAD^+ 0–500 μM, read-out: App Km
# Chain of SALDan (F5Z5S7 entry or part of it): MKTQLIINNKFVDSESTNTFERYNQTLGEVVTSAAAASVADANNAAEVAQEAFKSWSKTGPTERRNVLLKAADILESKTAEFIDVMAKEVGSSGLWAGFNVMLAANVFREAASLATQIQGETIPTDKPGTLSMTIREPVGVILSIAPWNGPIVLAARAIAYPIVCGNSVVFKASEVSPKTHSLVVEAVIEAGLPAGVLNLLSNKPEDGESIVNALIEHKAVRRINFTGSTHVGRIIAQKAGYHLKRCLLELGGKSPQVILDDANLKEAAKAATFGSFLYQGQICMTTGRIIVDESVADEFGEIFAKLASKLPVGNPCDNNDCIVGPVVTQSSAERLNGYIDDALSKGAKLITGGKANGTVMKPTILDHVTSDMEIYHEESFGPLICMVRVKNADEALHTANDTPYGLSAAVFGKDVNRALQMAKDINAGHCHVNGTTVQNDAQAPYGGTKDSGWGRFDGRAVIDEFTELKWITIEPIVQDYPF
# Description: (§1) The activity of the purified proteins was determined using SAL as a substrate. A reaction volume of 500 μL was prepared in a microfuge tube containing purified SALDan (0.1 μM), SAL (100 μM), and NAD^+ (100 μM) dissolved in 50 mM HEPES (pH 7.5) containing 150 mM NaCl. The SALDan activity was monitored as the rate of appearance of NADH at 340 nm spectrophotometrically. The specific activity of the enzyme (units.mg^−1.min^−1) was expressed as the amount of enzyme required to produce 1 μM of NADH under the assay conditions. The influence of pH on the activity was determined using the protocol described above, with the exception of replacing the […] buffer with 50 mM sodium acetate (pH 3.0–5.0), 50 mM 2-(N-morpholino)ethanesulfonic acid (pH 5.0–7.5), 50 mM HEPES (pH 8.0–8.5), 50 mM glycine (pH 9.0–10.0), or 50 mM sodium phosphate (pH 11.0)[52]. All assays were performed at the optimal temperature. To determine the influence of temperature on the enzymatic activity, the reactions were performed at 15, 20, 25, 30, 35, 40, and 45 °C, respectively.
# (§2) For kinetic studies of aldehydes, the initial velocities of the enzymatic reactions were examined by varying the concentrations of various aromatic as well as aliphatic aldehydes in the presence of NAD^+ (100 μM) and the enzyme (0.1 μM) under optimal conditions. For substrates that absorb at 340 nm, thus interfering with the calculation of the initial rate, their molar coefficients (ε) were calculated as described previously[64] and are presented in Table S1. The apparent kinetic parameters were calculated using the equation: […]
# (§3) The apparent kinetic parameters for NAD^+ were determined at a fixed concentration of SAL (50 μM) and a varying concentration of NAD^+ (0–500 μM). The apparent Km and Vmax values were calculated by using the equation: […]
# (§4) All the activity data were determined by three separate experiments with at least three technical replicates.
# SALDan E175A = molecular target: T1, SALDan E175A; assay: Kinetics assay of SALDan mutant E175A; format: biochemical; conditions: for change of apparent Km value / change of kcat/Km (catalytic efficiency): E175A mutant versus wild-type
# Text: (§5) The primers used for the single amino acid mutant were as follows: N149A, forward primer, 5′-ATAGCACCGTGGGCCGGGCCTATTGTATTA-3′; reverse primer, 5′-TAATACAATAGGCCCGGCCCACGGTGCTAT-3′; V153A, forward primer, 5′-AATGGGCCTATTGTATTAGCGGCTCGG-3′; reverse primer, 5′-CCGAGCCGCTAATACAATAGGCCCATT-3′; E175A, forward primer, 5′-[…]-3′, reverse primer, 5′-GTTGGGACAGTCTTCCAGCCC-3′; E175A, forward primer, 5′-ATGCTCCACCAAATTGGGCAC-3′; reverse primer, 5′-TTTAGGACTTACTTCTGAAGCTTTAAA-3′. The PCR was performed using Pfu polymerase, and the cycling parameters were: 95 °C for 5 min (one cycle), 95 °C for 30 s, and 68 °C for 12 min (12 cycles). After amplification, the PCR mixture was digested with DpnI and then transformed into E. coli BL21(DE3) by electroporation. The mutants were confirmed by DNA sequencing.
# as §1, §2, §3, §4
# SALDan N149A = molecular target: T2, SALDan N149A; assay: Kinetics assay of SALDan mutant N149A; format: biochemical
# Text: as §5, with “After amplification, the PCR mixture was digested with DpnI and then transformed into E. coli BL21(DE3) by electroporation. The mutants were confirmed by DNA sequencing.” left out
# (§6) The activity of the purified proteins was determined using SAL as a substrate. […] The SALDan activity was monitored as the rate of appearance of NADH at 340 nm spectrophotometrically. The specific activity of the enzyme (units.mg^−1.min^−1) was expressed as the amount of enzyme required to produce 1 μM of NADH under the assay conditions. The influence of pH on the activity was determined using the protocol described above, with the exception of replacing the Tris-HCl buffer with 50 mM sodium acetate (pH 3.0–5.0), 50 mM 2-(N-morpholino)ethanesulfonic acid (pH 5.0–7.5), 50 mM HEPES (pH 8.0–8.5), 50 mM glycine (pH 9.0–10.0), or 50 mM sodium phosphate (pH 11.0)[52]. […]
# SALDan V153A = molecular target: T3, SALDan V153A; assay: Kinetics assay of SALDan mutant V153A; format: biochemical; conditions: for effect on the kinetic parameters: V153A mutant versus wild-type
# Text: as §5, §6, §2
# [1] = substrate: NC(=O)c1ccc[n+]([C@@H]2O[C@H](COP(=O)([O-])OP(=O)(O)OC[C@H]3O[C@@H](n4cnc5c(N)ncnc54)[C@H](O)[C@@H]3O)[C@@H](O)[C@H]2O)c1; assay: Kinetics assay of SALDan mutant E175A; format: biochemical, Alteromonas naphthalenivorans; conditions: other: E175A mutant; SAL varied at NAD^+ 100 μM; NAD^+ varied at SAL 50 μM
# Text: as §5, §1, §2, §3, §4
# [2] = substrate: O=Cc1ccccc1O; assay: Kinetics assay of SALDan mutant E175A; format: biochemical, Alteromonas naphthalenivorans; conditions: other: E175A mutant; SAL varied at NAD^+ 100 μM; NAD^+ varied at SAL 50 μM
# Text: as §5, §1, §2, §3, §4
# [3] = substrate: NC(=O)c1ccc[n+]([C@@H]2O[C@H](COP(=O)([O-])OP(=O)(O)OC[C@H]3O[C@@H](n4cnc5c(N)ncnc54)[C@H](O)[C@@H]3O)[C@@H](O)[C@H]2O)c1; assay: Kinetics assay of SALDan mutant N149A; format: biochemical, Alteromonas naphthalenivorans; conditions: other: N149A mutant; SAL varied at NAD^+ 100 μM; NAD^+ varied at SAL 50 μM
# Text: as §5, §1, §2, §3, §4
# [4] = substrate: O=Cc1ccccc1O; assay: Kinetics assay of SALDan mutant N149A; format: biochemical, Alteromonas naphthalenivorans; conditions: other: N149A mutant; SAL varied at NAD^+ 100 μM; NAD^+ varied at SAL 50 μM
# Text: as §5, §1, §2, §3, §4
# [5] = substrate: NC(=O)c1ccc[n+]([C@@H]2O[C@H](COP(=O)([O-])OP(=O)(O)OC[C@H]3O[C@@H](n4cnc5c(N)ncnc54)[C@H](O)[C@@H]3O)[C@@H](O)[C@H]2O)c1; assay: Kinetics assay of SALDan mutant V153A; format: biochemical, Alteromonas naphthalenivorans; conditions: other: V153A mutant; SAL varied at NAD^+ 100 μM; NAD^+ varied at SAL 50 μM
# Text: as §5, §1, §2, §3, §4
# [6] = substrate: O=Cc1ccccc1O; assay: Kinetics assay of SALDan mutant V153A; format: biochemical, Alteromonas naphthalenivorans; conditions: other: V153A mutant; SAL varied at NAD^+ 100 μM; NAD^+ varied at SAL 50 μM
# Text: as §5, §1, §2, §3, §4
# [7] = wild-type, “—” means not observed, read-out: App Ki (substrate inhibition)
molecule,measurement,setting,value
O=Cc1ccc2ccccc2c1 [2-Naphthaldehyde],Ki,SALDan; [7],249 ± 22.5 µM
O=Cc1ccc(Cl)cc1 [4-Chlorobenzaldehyde],Ki,SALDan; [7],132 ± 18.9 µM
CCCC=O [Butyraldehyde],App Vmax,SALDan; wild-type,5.9 ± 1.0 U/mg
same,App kcat,SALDan; wild-type,14.3 ± 2.8 s⁻¹
same,Km,SALDan; wild-type,3200 ± 235 µM
O=Cc1ccccc1O [Salicylaldehyde],Ki,SALDan E175A,462 ± 51.4 µM
same,change of apparent Km value,SALDan E175A,increased
same,change of kcat/Km (catalytic efficiency),SALDan E175A,decreased by six times
same,Ki,SALDan N149A,447 ± 52.6 µM
same,change of catalytic efficiency compared with the wild-type protein,SALDan N149A; N149A mutant,decreased by about three times
same,Ki,SALDan,379 ± 45.2 µM
same,activity relative to the maximal velocity,"SALDan; wild-type, assayed at 200 μM substrate, substrate inhibition",approximately 80%
same,substrate concentration at which the highest velocity is achieved,"SALDan; wild-type, velocity versus substrate plot",40 µM
same,Ki,SALDan V153A,428 ± 49.4 µM
same,effect on the kinetic parameters,SALDan V153A,no significant effect
C=O [Formaldehyde],App Vmax,SALDan; wild-type,3.3 ± 0.7 U/mg
same,App kcat,SALDan; wild-type,8.6 ± 2.2 s⁻¹
same,Km,SALDan; wild-type,12400 ± 1820 µM
O=Cc1cccc(Cl)c1 [3-Chlorobenzaldehyde],Ki,SALDan; [7],124 ± 20.1 µM
O=Cc1ccc([N+](=O)[O-])cc1 [4-Nitrobenzaldehyde],Ki,SALDan; [7],266 ± 35.8 µM
O=Cc1ccccc1Cl [2-Chlorobenzaldehyde],Ki,SALDan,356 ± 40.1 µM
"NC(=O)c1ccc[n+]([C@@H]2O[C@H](COP(=O)([O-])OP(=O)(O)OC[C@H]3O[C@@H](n4cnc5c(N)ncnc54)[C@H](O)[C@@H]3O)[C@@H](O)[C@H]2O)c1 [NAD^+, nicotinamide adenine dinucleotide]",change of apparent Km value,SALDan E175A,increased by about two times
same,change of kcat/Km (catalytic efficiency),SALDan E175A,decreased by four times
same,increase of Km,SALDan E175A; mutation of Glu175 versus wild-type (Discussion),5 fold
same,effect on the kinetic parameters,SALDan V153A,no significant effect
O=Cc1ccccc1 [Benzaldehyde],Ki,SALDan,563 ± 87.6 µM
B1,Km,[1],105.6 ± 10.3 µM
same,Vmax,[1],60.6 µmol/min/mg
same,kcat,[1],158 ± 17.2 s⁻¹
same,kcat/Km,[1],1.5e+06 ± 400000 M⁻¹ s⁻¹
same,Km,[2],15.1 ± 2.6 µM
same,Vmax,[2],32.3 µmol/min/mg
same,kcat,[2],82.2 ± 10.1 s⁻¹
same,kcat/Km,[2],5.4e+06 ± 900000 M⁻¹ s⁻¹
B2,Km,[3],52.3 ± 6.1 µM
same,Vmax,[3],83.5 µmol/min/mg
same,kcat,[3],209 ± 25.6 s⁻¹
same,kcat/Km,[3],4e+06 ± 800000 M⁻¹ s⁻¹
same,Km,[4],9.5 ± 1.3 µM
same,Vmax,[4],38.6 µmol/min/mg
same,kcat,[4],100 ± 16.8 s⁻¹
same,kcat/Km,[4],1.06e+07 ± 1.3e+06 M⁻¹ s⁻¹
B3,Km,[5],44.9 ± 4.2 µM
same,Vmax,[5],103 µmol/min/mg
same,kcat,[5],254 ± 21.5 s⁻¹
same,kcat/Km,[5],5.7e+06 ± 500000 M⁻¹ s⁻¹
same,Km,[6],4.6 ± 0.7 µM
same,Vmax,[6],59.5 µmol/min/mg
same,kcat,[6],154 ± 20.4 s⁻¹
same,kcat/Km,[6],3.34e+07 ± 4.7e+06 M⁻¹ s⁻¹
